# Reference: US5470873A, “Diabetes prevention and treatment using gamma-pyrones” (University Technologies International, Inc., priority 1994, dated 1995)
# Several values for one entry are separate records, joined by “and”; a condition that tells them apart may be missing. Equal values may be shown once. Entries after “also recorded” stand apart in the source; their conditions may differ.
# Assays:
# [1] = Blood glucose levels in NOD mice (glucose oxidase method); format: in vivo; settings: NOD mice
# Experimental: NOD mice were dosed with maltol to evaluate its effect on the pathogenesis of type I diabetes. Mice received 5 mg maltol/mouse every other day from age 2 weeks until they were 20 weeks old. Maltol extracted from ginseng as described in Example 2 was used for the first 10 weeks, then maltol purchased from Sigma Co., St. Louis, MO was used thereafter. The mice were kept until they were 35 weeks old. Urine glucose was measured at 3-day intervals from 10 to 35 weeks of age. Urinary glucose and ketone levels were determined using Diastix and Ketostix reagent slips (Miles, Ontario, Canada). Individual mice were classified as being diabetic on the basis of positive glycosuria^38. […] In contrast, 78% of age-matched control mice (22 mice) spontaneously developed autoimmune diabetes. At 35 weeks of age, fasting (8 hours of fasting) and non-fasting blood glucose levels were measured. Blood was obtained from the retro-orbital venous plexus of fasting and nonfasting NOD mice. Glucose levels were measured enzymatically by the glucose oxidase method with o-dianisidine dihydrochloride as the reactive dye ^39-41 . The mean nonfasting blood glucose level of 35 ICR mice (nondiabetic control mice; NOD mice were derived from ICR mice) was 149±27 mg/dl. Any non-fasting mouse with a blood glucose level greater than 230 mg/dl (3 SD above the mean) was scored as diabetic. The mean fasting blood glucose level of 38 ICR mice was 137±28 mg/dl. Any fasting mouse with a blood glucose level greater than 221 mg/dl (3 SD above the mean) was scored as diabetic.
# pancreatic beta cells = experiment: Destruction of pancreatic beta cells detected by fluorescein labelled anti-insulin antibody; format: in vivo, NOD mice; design: key to Diabetes: "+" indicates "yes"; "-" indicates "no"
# Experimental: Fluorescein isothiocyanate-labelled anti-insulin antibody was prepared as described previously 45. Briefly, gamma globulin that was prepared by immunizing guinea pigs with glutaraldehyde polymerized porcine insulin and purified by Sephadex G-200 chromatography was purchased from Index Corp., Glenwood, Ill, USA. This material was labelled with FITC. Unconjugated FITC was removed by dialysis against 0.01M PBS (pH 7.5) and by gel filtration through a Sephadex G-25. The labelled gamma globulin was subsequently absorbed with acetone-treated mouse liver powder to eliminate nonspecific fluorescence. Pancreatic sections (from 25% of each pancreas) prepared from maltol-treated and untreated NOD mice were stained with FITC-labelled anti-insulin antibody and examined under a fluorescent microscope as described elsewhere 47.48. Briefly, pancreatic sections on the slides were flooded with FITC-labelled anti-insulin antibody and incubated in a humidity chamber overnight at 4° C. in the dark. The slides were then washed in three changes of cold PBS for a total of 20 min to remove any unattached antibody, mounted with Elvanol and observed with an Olympus fluorescence microscope ^45. As it is difficult to determine whether the lymphocytes observed in the pancreatic islets are contributing to beta cell destruction, another method was used to determine whether beta cells from maltol-treated or untreated NOD mice were destroyed or not. Sections of pancreatic islets were stained with a fluorescein-labelled anti-insulin antibody and the number of insulin-containing beta cells in the islets was estimated.
# [2] = Blood glucose levels in GK rats (NIDDM model), glucose tolerance test; format: in vivo
# Experimental: To see whether DPD, alone or in combination with other modalities, had any effect on the control of blood glucose levels, GK rats were treated daily from 4 to 14 weeks of age with one of the following: At 14 weeks of age, glucose tolerance tests were performed by intraperitoneal injection of 2 mg glucose/gm body weight. Blood glucose levels were determined 60 minutes later using methods previously described^64-67. Rats receiving DPD alone were intubated daily with a 1.18 % (w/v) solution of DPD in PBS. At 4 weeks of age, rats received 0.5 ml of the 1.18% solution of DPD. This was increased by 0.1 ml/week so that rats at 14 weeks of age received 1.5 ml of the 1.18% solution of DPD. Control rats received the same volume of PBS only. Rats receiving OSA alone were intubated daily with an aqueous extract of OSA. The extract was prepared by adding 10% dried powdered OSA plant to boiling water, keeping the mixture at the boiling point in a sealed container for 3-4 hours, removing the supernatant, then cooling it for use in intubating the GK rats. This supernatant will be referred to as 10% OSA extract. At 4 weeks of age, rats received 0.5 ml of the 10% OSA extract. This was increased by about 0.15 ml/week so that rats at 14 weeks of age received 2.0 ml of the 10% OSA extract. Control rats received the same volume of PBS. […]
# [3] = 30% to 69% of beta cell destruction, individual DPD-treated NOD mice (animal 1-5)
# [4] = less than 30% of beta cell destruction, individual DPD-treated NOD mice (animal 1-5)
# [5] = no destruction of beta cells, individual DPD-treated NOD mice (animal 1-5)
# [6] = over 70% of beta cell destruction, individual DPD-treated NOD mice (animal 1-5)
smiles,measurement,setting,value
"Cc1occc(=O)c1O [DPD, maltol]",Hyperglycemia / clinical diabetes by blood glucose (in words),[1],do not exhibit hyperglycemia; also recorded: prevents clinical diabetes
same,"Moderate Destruction of beta cells, islets / islets examined",pancreatic beta cells; [3],4/16 and 5/17 and 3/18 and 4/19
same,"Moderate Destruction of beta cells, percent of islets",pancreatic beta cells; [3],25% and 29% and 17% and 21%
same,Diabetes,"pancreatic beta cells; Table 3, individual DPD-treated NOD mice",-
same,Destruction of pancreatic beta cells (in words),"pancreatic beta cells; compared to untreated, diabetic NOD mice",significantly lower
same,"Mild destruction, share of examined islets",pancreatic beta cells; group of DPD-treated NOD mice,45%
same,"Moderate destruction, share of examined islets",pancreatic beta cells; group of DPD-treated NOD mice,23%
same,"No destruction, share of examined islets",pancreatic beta cells; group of DPD-treated NOD mice,12%
same,"Severe destruction, share of examined islets",pancreatic beta cells; group of DPD-treated NOD mice,20%
same,"Mild Destruction of beta cells, islets / islets examined",pancreatic beta cells; [4],7/16 and 7/17 and 9/18 and 9/19
same,"Mild Destruction of beta cells, percent of islets",pancreatic beta cells; [4],43% and 41% and 50% and 47%
same,"Intact, islets / islets examined",pancreatic beta cells; [5],2/16 and 2/17 and 2/18 and 2/19
same,"Intact, percent of islets",pancreatic beta cells; [5],13% and 12% and 11%
same,"Severe Destruction of beta cells, islets / islets examined",pancreatic beta cells; [6],3/16 and 3/17 and 4/18 and 4/19
same,"Severe Destruction of beta cells, percent of islets",pancreatic beta cells; [6],19% and 18% and 22% and 21%
same,Blood Glucose,"[2]; DPD 1.18% (w/v) in PBS oral daily, 4 to 14 weeks of age, 60 minutes after i.p. 2 mg glucose/gm, PBS control 389 ± 23",349 ± 42 mg/dL
same,Effect on control of blood glucose levels (in words),[2]; GK rats,some reduction of blood glucose levels
